The source of these data is patent publication US12343350B2, “Istaroxime-containing intravenous formulation for the treatment of acute heart failure (AHF)” (Windtree Therapeutics, Inc., priority 2019, dated 2025).

Marks after values point to notes of the source that are not given here. Some results are limits rather than exact numbers.

The target in one data set is SERCA2a (Canis lupus familiaris (Dog) (Canis familiaris), UniProt O46674). As to the kind of experiment: SERCA2a ATPase activity in SR preparations from failing dog. In kind it is biochemical. As to conditions: data not shown. Here is the method:
Male beagle dogs were used for obtaining cardiac tissues for SERCA2a-enriched sarcoplasmic reticulum preparations. Healthy dogs were utilized for obtaining the data in Table 3. Chronic heart failure was induced in dogs by multiple intracoronary microembolizations with polystyrene latex microspheres ([…], Polysciences, Warrington, PA, USA) as described previously (see Sabbah H N et al., Am J Physiol. 1991; 260:H1379-84). The experiments were conducted in the General Pharmacology Department of Sigma-Tau, Rome, Italy. […]
SERCA2a activity was measured in vitro as ^32P-ATP hydrolysis at different Ca2^+ concentrations (100 to 3000 nM) in the absence and presence of the tested compounds as described previously (see Micheletti R. et al., Am J Card 2007; 99:24A-32A). […] The ATP hydrolysis was continued for 15 min at 37° C. and was stopped by acidification with 100 μl of 20% v/v ice-cold perchloric acid. ^32P was separated by centrifugation with activated charcoal (Norit A, SERVA) and the radioactivity was measured. […]
Dose-response curves were fitted by using a sigmoidal curve fitting software and the maximal velocity (Vmax) activity and the Kd Ca2^+ were calculated (Synergy Software KaleidaGraph 3.6). […]

The test system of data set [1] is mouse (Albino Swiss CD-1). As to the kind of experiment: Acute toxicity (LD50) in mouse. Conditions: single administration. The data set is classed as in vivo. As for the experimental part:
Acute toxicity has been determined in the mouse (Albino Swiss CD-1, body weight 30 g). Mice were orally treated, or intravenously injected, with single administration of increasing doses of the test substance to identify the dose causing 50% mortality. Mortality occurred within 30 min after the administration and survival after 24 h. The acute toxicity (LD50) was then assessed.
The acute toxicity of the tested compound PST 3093 was determined in the mouse (Albino Swiss CD-1, body weight 30 g). Compound PST 3093 was orally administered or intravenously injected at increasing doses to identify the dose causing 50% mortality. Mortality occurred within 30 min after the administration and survival after 24 h.

The test system of the next data set is STZ diabetic rats. As to the kind of experiment: Haemodynamics in streptozotocin (STZ) diabetic rats (echocardiography 2M-Doppler-Tissue Doppler). In kind it is in vivo, rat. Here is the method: Sprague Dawley male rats (150-175 g) were made diabetic by a single injection into the tail vein of a solution of streptozotocin (STZ, 50 mg/kg, Sigma-Aldrich), freshly prepared in 0.1 M sodium citrate buffer, pH 4.5. Control rats received citrate buffer. Fasting glycaemia was measured after 1 week and rats with values greater than 400 mg/dl were considered diabetic.
Eight to nine weeks after STZ injection, rats were submitted to transthoracic echocardiographic and Doppler evaluation performed under pentobarbital anesthesia. Two-dimensionally guided M-mode recordings were used to obtain short-axis measurements of left ventricular end-diastolic diameter (LVEDD), left ventricular end-systolic diameter (LVESD), posterior (PW) and septal (SW) diastolic wall thickness according to the American Society of Echocardiography guidelines (Lang R M et al., Eur J Echocardiography 2006; 7:79-108). Fractional shortening was calculated as FS=(LVEDD-LVESD)/LVEDD. Relative wall thickness was calculated as PWTd+IVSTd/LVEDD.
Mitral inflow was measured by pulsed Doppler at the tips of mitral leaflets from an apical 4-chamber view to obtain early and late filling velocities (E, A) and deceleration time of early filling velocity (DT). The deceleration slope was calculated as E/DT ratio. The mitral deceleration index was calculated as DT/E ratio.
Tissue Doppler Imaging (TDI) was evaluated from the apical 4-chamber view to record septal mitral annular movements, i.e., peak myocardial systolic (s′) and early and late diastolic velocity (e′ and a′).
The compound PST 3093 was iv administered to STZ injected rats at the dose of 0.22 mg/kg and echocardiographic parameters were measured after 15 and 30 min from the beginning of iv infusion and 10 min after interruption of infusion.

Where [2] appears, read: after 10 min from STOP infusion.

SERCA2a, sequence (O46674 whole entry): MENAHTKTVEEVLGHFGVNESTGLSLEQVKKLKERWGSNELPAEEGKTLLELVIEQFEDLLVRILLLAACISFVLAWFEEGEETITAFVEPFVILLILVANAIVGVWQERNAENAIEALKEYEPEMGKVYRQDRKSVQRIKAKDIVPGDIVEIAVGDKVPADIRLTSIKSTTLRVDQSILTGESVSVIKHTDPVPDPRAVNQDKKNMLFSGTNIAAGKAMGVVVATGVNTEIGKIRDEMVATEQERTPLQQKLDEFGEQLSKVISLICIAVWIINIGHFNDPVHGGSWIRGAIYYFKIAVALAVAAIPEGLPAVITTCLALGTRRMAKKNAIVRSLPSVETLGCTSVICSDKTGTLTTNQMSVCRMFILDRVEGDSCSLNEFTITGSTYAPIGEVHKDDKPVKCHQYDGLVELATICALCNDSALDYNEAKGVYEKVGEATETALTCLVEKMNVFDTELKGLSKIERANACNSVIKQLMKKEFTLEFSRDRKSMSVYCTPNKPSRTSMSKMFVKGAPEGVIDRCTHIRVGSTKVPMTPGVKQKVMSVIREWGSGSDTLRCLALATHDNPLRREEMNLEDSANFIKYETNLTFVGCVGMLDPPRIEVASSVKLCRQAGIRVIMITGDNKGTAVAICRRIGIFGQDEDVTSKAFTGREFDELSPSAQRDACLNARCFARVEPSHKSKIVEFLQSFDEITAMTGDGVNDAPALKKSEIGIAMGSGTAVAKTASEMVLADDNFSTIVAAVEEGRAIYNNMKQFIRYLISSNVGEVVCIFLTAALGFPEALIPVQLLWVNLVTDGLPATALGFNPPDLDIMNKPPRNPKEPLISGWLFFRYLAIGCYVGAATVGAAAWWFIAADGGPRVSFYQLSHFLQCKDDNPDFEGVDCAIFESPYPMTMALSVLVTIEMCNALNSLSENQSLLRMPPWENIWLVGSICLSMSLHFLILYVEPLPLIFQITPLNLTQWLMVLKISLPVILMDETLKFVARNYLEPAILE

`C[C@]12CCC(=NOCCN)C[C@@H]1C(=O)C[C@@H]1[C@@H]2CC[C@]2(C)C(=O)CC[C@@H]12` [Istaroxime, (3Z,5a)-3-[(2-aminoethoxy)imino]androstane-6,17-dione]: the SERCA2a activation result on SERCA2a was “particularly evident”.
On to `C[C@]12CCC(=NOCC(=O)O)CC1[C@H](O)CC1C2CC[C@]2(C)C(=O)CCC12` (stereo partly drawn) [PST 3093, (E,Z)-[(6-beta-hydroxy-17-oxoandrostan-3-ylidene)amino]oxyacetic acid], for which the LD50 (as a rule, the dose expected to kill half of the subjects tested) in data set [1] (i.v.) is recorded as greater than 250 mg/kg. The molecule also showed an LD50 in data set [1] (os (oral)) greater than 200 mg/kg. Further, in the data set on STZ diabetic rats (0.22 mg/kg iv, after 15 min), the “CO, cardiac output” value is 231.7 ± 64 mL/min; the “DT, deceleration time of E wave” value is 40.2 ± 9.54 ms; the “DT/E, mitral deceleration index” value is given as 40.39 ± 15.04* s^2/m; the “E, E wave, early filling velocity of mitral inflow” value (“E, E wave, early filling velocity” for short) came out at 1.048 ± 0.218. Also, in the data set with STZ diabetic rats (0.22 mg/kg iv, after 15 min), the “E/DT, decelaration slope” value was determined as 27.51 ± 8.42 m/s^2; the “E/e′, index of LV filling pressure” value worked out at 38.61 ± 4.71; the “HR, heart rate” value is given as 271 ± 33 beat/min; the “SV, stroke volume” value amounted to 0.85 ± 0.18 ml/beat. In the data set on STZ diabetic rats (0.22 mg/kg iv, after 15 min), the “e′ TDI, early relaxation velocity” value was 27.01 ± 3.4 cm/s. Moreover, in the data set on STZ diabetic rats (0.22 mg/kg iv, after 30 min), the “CO, cardiac output” value was determined as 230.6 ± 46.7 mL/min; the “DT, deceleration time of E wave” value is given as 36.6 ± 6.09 ms; the “DT/E, mitral deceleration index” value is 35.47 ± 10.19* s^2/m; the “E, E wave, early filling velocity” value came out at 1.076 ± 0.211. Also, in the data set with STZ diabetic rats (0.22 mg/kg iv, after 30 min), the “E/DT, decelaration slope” value is 30.36 ± 8.73 m/s^2; the “E/e′, index of LV filling pressure” value is listed as 38.7 ± 4.26; the “HR, heart rate” value was 269 ± 29 beat/min; the “SV, stroke volume” value stood at 0.86 ± 0.14 ml/beat. The “e′ TDI, early relaxation velocity” value in the data set with STZ diabetic rats (0.22 mg/kg iv, after 30 min) was determined as 27.77 ± 4.27 cm/s. In the data set on STZ diabetic rats (setting [2]), the “CO, cardiac output” value is 200.88 ± 51.7 mL/min; the “DT, deceleration time of E wave” value stood at 41.88 ± 7.86 ms; the “DT/E, mitral deceleration index” value is on record as 49.08 ± 13.09* s^2/m; the “E, E wave, early filling velocity” value amounted to 0.89 ± 0.19. For the same molecule, in the data set on STZ diabetic rats (setting [2]), the “E/DT, decelaration slope” value worked out at 22.36 ± 8.89 m/s^2; the “E/e′, index of LV filling pressure” value was found to be 39.45 ± 4.18; the “HR, heart rate” value turned out to be 249 ± 28 beat/min; the “SV, stroke volume” value turned out to be 0.81 ± 0.17 ml/beat. Besides, in the data set with STZ diabetic rats (setting [2]), the “e′ TDI, early relaxation velocity” value is reported as 22.48 ± 3.35 cm/s.
